Measured values: patent publication US7674807B2, “Heterocycle-substituted n-phenyl-phthalamide derivatives, related compounds and their use as insecticides” (Bayer CropScience AG, priority 2004, dated 2010)

What was measured:
[1] = system: larva of Spodoptera litura; experiment: Test against larva of Spodoptera litura (leaf dip, sweet potato leaves); type: in vivo; conditions: 20 ppm concentration of the active component; third instar larvae; counted after 7 days; 25° C.
Procedure: Preparation of Test Solution:
In order to make an appropriate formulation of an active compound, 1 part by weight of the active compound was mixed with the above-mentioned amount of solvent containing the above-mentioned amount of emulsifier and the mixture was diluted with water to a prescribed concentration.
Leaves of sweet potato were soaked in the test solution diluted to a prescribed concentration with water, dried in the air and put in a dish of 9 cm diameter.
10 larvae of Spodoptera litura at the third instar were placed on the leaves and kept in a room at the constant temperature of 25° C. After 2 and 4 days further leaves of sweet potato were added and after 7 days the number of dead larvae was counted and the rate of death was calculated.
In this test the results of 2 dishes at 1 section were averaged.

[2] = system: larva of Cnaphalocrocis medinalis Guenee; experiment: Test against larva of Cnaphalocrocis medinalis Guenee (sprayed paddy rice foliage); type: in vivo; conditions: 20 ppm concentration of the active component; second instar larvae; counted after 7 days; 25° C.
Procedure: Paddy rice (variety: Tamanishiki) planted in a pot was treated by spraying 50 ml per pot of the diluted aqueous solution of the prescribed concentration of the active compound prepared in the same manner as in the above-mentioned Biological Test Example 1. After the treated rice plant was dried in the air, their foliage part was cut in 4-5 cm length, which were put in a dish with 9 cm diameter with a sheet of filter paper and 2 ml of water. Five larvae of Cnaphalocrocis medinalis Guenee at the second instar were put in the dish that was placed in a room at the constant temperature of 25° C. After 2 and 4 days, each rest (each ⅓ amount) of foliage parts of rice plant were cut in the same manner and added to the dish. After 7 days the number of dead larvae was counted and the rate of death was calculated. In this test the results of 2 dishes at 1 section were averaged.

Row | SMILES | controlling effect, rate of death [1] [%] | controlling effect, rate of death [2] [%]
1 | CSCC(C)NC(=O)c1c(Cl)cccc1C(=O)Nc1ccc(Cn2nc(C(F)(F)F)cc2C(F)(F)F)cc1C (centres unmarked) [compound 12] | 100 | 100
2 | Cc1cc(Cn2nc(C(F)(F)F)nc2C(F)(F)F)ccc1NC(=O)c1cccc(I)c1C(=O)NC(C)CS(C)(=O)=O (centres unmarked) [compound 219] | 100 | 100
3 | Cc1cc(Cn2cc(C(F)(F)C(F)(F)C(F)(F)C(F)(F)F)c(C(F)(F)F)n2)ccc1NC(=O)c1cccc(I)c1C(=O)N[C@@H](C)C[S+](C)[O-] (some centres unmarked) [compound 649] | 100 | 100
4 | Cc1cc(Cn2nc(C(F)(F)F)cc2C(F)(F)F)ccc1NC(=O)c1cccc(I)c1C(=O)NC(C)C[S+](C)[O-] (mixture of isomers) [compound 87] | 100 | 100
5 | CSCC(C)NC(=O)c1c(Br)cccc1C(=O)Nc1ccc(Cn2nc(C(F)(F)F)cc2C(F)(F)F)cc1C (racemic) [compound 48] | 100 | 100
6 | Cc1cc(Cc2c(OC(F)F)nn(C(F)F)c2C(F)(F)F)ccc1NC(=O)c1cccc(I)c1C(=O)NC(C)CS(C)(=O)=O (centres unmarked) [compound 270] | 100 | 100
7 | CSCC(C)NC(=O)c1c(I)cccc1C(=O)Nc1ccc(Cn2c(C(F)(F)F)nnc2C(F)(F)F)cc1C (centres unmarked) [compound 299] | 100 | 100
8 | CSCC(C)NC(=O)c1c(Cl)cccc1C(=O)Nc1ccc(Cn2nc(C(F)(F)C(F)(F)F)nc2C(F)(F)F)cc1C (centres unmarked) [compound 153] | 100 | 100
9 | Cc1cc(Cn2nc(C(F)(F)C(F)(F)F)nc2C(F)(F)F)ccc1NC(=O)c1cccc(I)c1C(=O)NC(C)C[S+](C)[O-] (centres unmarked) [compound 229] | 100 | 100
10 | CSC[C@H](C)NC(=O)c1c(Cl)cccc1C(=O)Nc1ccc(Cn2cc(C(F)(F)C(F)(F)C(F)(F)C(F)(F)F)c(C(F)(F)C(F)(F)F)n2)cc1C [compound 663] | 100 | 100
11 | CSC[C@H](C)NC(=O)c1c(Cl)cccc1C(=O)Nc1ccc(Cn2nc(C(F)(F)C(F)(F)F)nc2C(F)(F)C(F)(F)F)cc1C [compound 681] | 100 | 100
12 | CSCC(C)NC(=O)c1c(I)cccc1C(=O)Nc1ccc(-c2cc(C(F)(F)F)nn2CC(F)(F)F)cc1C (centres unmarked) [compound 506] | 100 | 100
13 | CSCC(C)(C)NC(=O)c1c(I)cccc1C(=O)Nc1ccc(-n2ccc(C(F)(F)C(F)(F)F)n2)cc1C [compound 434] | 100 | 100
14 | CSCC(C)(C)NC(=O)c1c(I)cccc1C(=O)Nc1ccc(Cn2nc(C(F)(F)F)cc2C(F)(F)F)cc1C [compound 82, N^1-[4-(3,5-bistrifluoromethylpyrazol-1-ylmethyl)-2-methylphenyl]-N^2-(1,1-dimethyl-2-methylsulfanylethyl)-3-iodophthalamide] | 100 | 100
15 | Cc1cc(C(C)n2nc(C(F)(F)F)cc2C(F)(F)F)ccc1NC(=O)c1cccc(Cl)c1C(=O)N[C@@H](C)CS(C)(=O)=O (some centres unmarked) [compound 561] | 100 | 100
16 | CSCC(C)(C)NC(=O)c1c(Br)cccc1C(=O)Nc1ccc(Cn2nc(C(F)(F)F)cc2C(F)(F)F)cc1C [compound 45] | 100 | 100
17 | CSC[C@H](C)NC(=O)c1c(Cl)cccc1C(=O)Nc1ccc(Cn2nc(SC(F)(F)C(F)(F)C(F)(F)F)nc2C(F)(F)F)cc1C [compound 804] | 100 | 100
18 | CSC[C@H](C)NC(=O)c1c(I)cccc1C(=O)Nc1ccc(Cn2cc(C(F)(F)C(F)(F)C(F)(F)F)c(C(F)(F)F)n2)cc1C [compound 644] | 100 | 100
19 | CSCC(C)NC(=O)c1c(I)cccc1C(=O)Nc1ccc(Cn2nc(C(F)(F)F)cc2OC(F)F)cc1C (racemic) [compound 103] | 100 | 100
20 | Cc1cc(Cn2nc(C(F)(F)F)nc2C(F)(F)F)ccc1NC(=O)c1cccc(I)c1C(=O)NC(C)C[S+](C)[O-] (centres unmarked) [compound 217] | 100 | 100

Row | SMILES | controlling effect, rate of death [1] [%] | controlling effect, rate of death [2] [%]
21 | CSCC(C)NC(=O)c1c(I)cccc1C(=O)Nc1ccc(Cc2c(C(F)(F)F)nn(C(F)F)c2OC(F)F)cc1C (centres unmarked) [compound 262] | 100 | 100
22 | Cc1cc(-n2cc(C(F)(F)C(F)(F)F)cn2)ccc1NC(=O)c1cccc(I)c1C(=O)NC(C)(C)CS(C)(=O)=O [compound 448] | 100 | 100
23 | CSC[C@H](C)NC(=O)c1c(I)cccc1C(=O)Nc1ccc(Cn2cc(C(F)(F)C(F)(F)C(F)(F)F)c(C(F)(F)C(F)(F)C(F)(F)F)n2)cc1C [compound 670] | 100 | 100
24 | CSCC(C)(C)NC(=O)c1c(I)cccc1C(=O)Nc1ccc(Oc2nc(C(F)(F)F)cc(C(F)(F)F)n2)cc1C [compound 308] | 100 | 100
25 | Cc1cc(Cn2nc(C(F)(F)F)nc2C(F)(F)F)ccc1NC(=O)c1cccc(Cl)c1C(=O)NC(C)CS(C)(=O)=O (centres unmarked) [compound 145] | 100 | 100
26 | CC[S+]([O-])CC(C)NC(=O)c1c(I)cccc1C(=O)Nc1ccc(Cn2nc(C(F)(F)F)nc2C(F)(F)F)cc1C (centres unmarked) [compound 221] | 100 | 100
27 | CSC[C@H](C)NC(=O)c1c(Cl)cccc1C(=O)Nc1ccc(Cn2cc(C(F)(F)C(F)(F)C(F)(F)C(F)(F)F)c(C(F)(F)F)n2)cc1C [compound 645] | 100 | 100
28 | CSCC(C)(C)NC(=O)c1c(Cl)cccc1C(=O)Nc1ccc(Cn2nc(C(F)(F)F)nc2C(F)(F)F)cc1C [compound 137] | 100 | 100
29 | CSCC(C)NC(=O)c1c(I)cccc1C(=O)Nc1ccc(Cn2cc(C(F)(F)F)nc2C(F)(F)F)cc1C (centres unmarked) [compound 281] | 100 | 100
30 | Cc1cc(Cn2cc(C(F)(F)C(F)(F)F)c(C(F)(F)F)n2)ccc1NC(=O)c1cccc(Cl)c1C(=O)N[C@@H](C)CS(C)(=O)=O [compound 639] | 100 | 100
31 | CSCC(C)NC(=O)c1c(Cl)cccc1C(=O)Nc1ccc(Cn2nc(C(F)(F)F)cc2C(F)(F)F)cc1C (racemic) [compound 11] | 100 | 100
32 | Cc1cc(Cn2nc(C(F)(F)F)cc2C(F)(F)F)ccc1NC(=O)c1cccc(I)c1C(=O)NC(C)CS(C)(=O)=O (centres unmarked) [compound 90] | 100 | 100
33 | Cc1cc(Cn2nc(C(F)(F)F)cc2C(F)(F)F)ccc1NC(=O)c1cccc(Cl)c1C(=O)NC(C)C[S+](C)[O-] (mixture of isomers) [compound 14] | 100 | 100
34 | Cc1cc(-n2nc(C(F)(F)F)cc2C(F)(F)F)ccc1NC(=O)c1cccc(Cl)c1C(=O)NC(C)CS(C)(=O)=O (centres unmarked) [compound 322] | 100 | 100
35 | CCS(=O)(=O)CC(C)NC(=O)c1c(I)cccc1C(=O)Nc1ccc(Cn2nc(C(F)(F)F)cc2C(F)(F)F)cc1C (centres unmarked) [compound 93] | 100 | 100
36 | CSCC(C)NC(=O)c1c(I)cccc1C(=O)Nc1ccc(Cn2nc(C(F)(F)F)cc2C(F)(F)F)cc1C (racemic) [compound 85] | 100 | 100
37 | Cc1cc(Cn2cc(C(F)(F)C(F)(F)C(F)(F)C(F)(F)F)c(C(F)(F)F)n2)ccc1NC(=O)c1cccc(Cl)c1C(=O)N[C@@H](C)C[S+](C)[O-] (some centres unmarked) [compound 646] | 100 | 100
38 | Cc1cc(Cn2nc(C(F)(F)F)cc2C(F)(F)F)ccc1NC(=O)c1cccc([N+](=O)[O-])c1C(=O)N[C@@H](C)C[S+](C)[O-] (some centres unmarked) [compound 544] | 100 | 100
39 | Cc1cc(Oc2nc(C(F)(F)F)cc(C(F)(F)F)n2)ccc1NC(=O)c1cccc(I)c1C(=O)NC(C)(C)CS(C)(=O)=O [compound 310] | 100 | 100
40 | Cc1cc(C(C)n2nc(C(F)(F)F)nc2C(F)(F)F)ccc1NC(=O)c1cccc(I)c1C(=O)N[C@@H](C)CS(C)(=O)=O (some centres unmarked) [compound 573] | 100 | 100
